Measured values: patent publication US8211945B2, “Carba-sugar amine derivative and glycolipid metabolic disorder treating agent containing the same as active ingredient” (Seikagaku Corporation, priority 2001, dated 2012)
Positions count from the first letter of the chain named.

What was measured:
Assay in all cases: Mutant β-galactosidase activity in model cells, 4 days culture
Type in all cases: cell-based
[1] = molecular target: T1, human mutant β-galactosidase G123R (Homo sapiens, UniProt P16278, G123R)
T1 construct: expressed in transfected cells; host or cells: SV40-immortalized skin fibroblasts of a β-galactosidase-deficient knockout mouse
T1 sequence (P16278 29-677 G123R): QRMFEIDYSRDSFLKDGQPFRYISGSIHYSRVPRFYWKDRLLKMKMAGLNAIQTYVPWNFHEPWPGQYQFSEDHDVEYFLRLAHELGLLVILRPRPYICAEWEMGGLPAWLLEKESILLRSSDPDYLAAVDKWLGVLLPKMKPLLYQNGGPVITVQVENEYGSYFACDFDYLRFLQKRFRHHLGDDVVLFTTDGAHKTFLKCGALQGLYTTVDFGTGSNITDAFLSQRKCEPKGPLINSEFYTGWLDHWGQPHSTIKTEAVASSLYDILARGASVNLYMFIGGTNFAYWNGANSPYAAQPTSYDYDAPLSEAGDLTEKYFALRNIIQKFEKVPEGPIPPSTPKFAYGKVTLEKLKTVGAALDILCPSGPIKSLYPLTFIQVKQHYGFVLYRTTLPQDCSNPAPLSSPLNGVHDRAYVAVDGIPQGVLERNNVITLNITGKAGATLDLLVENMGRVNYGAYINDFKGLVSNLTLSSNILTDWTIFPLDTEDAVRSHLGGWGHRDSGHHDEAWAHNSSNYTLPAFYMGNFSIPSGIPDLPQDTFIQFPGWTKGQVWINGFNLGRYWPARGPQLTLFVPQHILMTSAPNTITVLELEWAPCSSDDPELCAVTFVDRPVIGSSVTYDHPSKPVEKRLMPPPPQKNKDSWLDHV

[2] = molecular target: T2, human mutant β-galactosidase W273L (Homo sapiens, UniProt P16278, W273L)
T2 construct: expressed in transfected cells; host or cells: SV40-immortalized skin fibroblasts of a β-galactosidase-deficient knockout mouse
T2 sequence (P16278 29-677 W273L): T1 sequence (P16278 29-677 G123R) with R95G, W245L

[3] = molecular target: T3, human mutant β-galactosidase Y316C (Homo sapiens, UniProt P16278, Y316C)
T3 construct: expressed in transfected cells; host or cells: SV40-immortalized skin fibroblasts of a β-galactosidase-deficient knockout mouse
T3 sequence (P16278 29-677 Y316C): T1 sequence (P16278 29-677 G123R) with R95G, Y288C

Row | Compound | enzyme activity, Control ([1]; transferred gene G123R, control substance 0.5 mM NB-DGJ) | enzyme activity, Control ([2]; transferred gene W273L, control substance 0.5 mM NB-DGJ) | enzyme activity, Control ([3]; transferred gene Y316C, control substance 0.5 mM NB-DGJ) | Relative ratio (×100%) ([1]; G123R, substance 18 vs control) | enzyme activity ([1]; transferred gene G123R, 0.2 μM, 4 days) | enzyme activity increased in comparison with the control ([2]; W273L, 0.2 μM) [%] | Relative ratio (×100%) ([2]; W273L, substance 18 vs control) | enzyme activity ([2]; transferred gene W273L, 0.2 μM, 4 days) | Relative ratio (×100%) ([3]; Y316C, substance 18 vs control) | enzyme activity ([3]; transferred gene Y316C, 0.2 μM, 4 days)
1 | CCCCN1C[C@H](O)[C@@H](O)[C@@H](O)[C@H]1CO [Control, N-(n-butyl)-deoxygalactonojirimycin, reference compound] | 0.13 | 11.83 | 0.23 | – | – | – | – | – | – | –
2 | CCCCCCCCN[C@@H]1C=C(CO)[C@H](O)C(O)[C@@H]1O (stereo partly drawn) [Substance 18, N-octyl-5a-carba-α-L-arabino-hexo-5(5a)-enopyranosylamine] | – | – | – | 1.55 ×100% | 0.20 | ≥ 150 | 1.50 ×100% | 17.71 | 3.44 ×100% | 0.80
